Test results published in patent publication US20050100983A1, “Cell-free methods for identifying compounds that affect toll-like receptor 9 (TLR9) signaling” (Coley Pharmaceutical GmbH, priority 2003, published 2005).
pEC50, pKd: −log10 of the molar value.

Assays:
[1] = molecular target: T1, mTLR9ect (extracellular domain of murine TLR9 fused to human IgG1-Fc) (Mus musculus, UniProt Q9EQU3); assay: SPR biosensor analysis of mTLR9ect binding to immobilized CpG-DNA
T1 construct: mTLR9ect (aa 1-816); made in house
T1 sequence (Q9EQU3 26-816): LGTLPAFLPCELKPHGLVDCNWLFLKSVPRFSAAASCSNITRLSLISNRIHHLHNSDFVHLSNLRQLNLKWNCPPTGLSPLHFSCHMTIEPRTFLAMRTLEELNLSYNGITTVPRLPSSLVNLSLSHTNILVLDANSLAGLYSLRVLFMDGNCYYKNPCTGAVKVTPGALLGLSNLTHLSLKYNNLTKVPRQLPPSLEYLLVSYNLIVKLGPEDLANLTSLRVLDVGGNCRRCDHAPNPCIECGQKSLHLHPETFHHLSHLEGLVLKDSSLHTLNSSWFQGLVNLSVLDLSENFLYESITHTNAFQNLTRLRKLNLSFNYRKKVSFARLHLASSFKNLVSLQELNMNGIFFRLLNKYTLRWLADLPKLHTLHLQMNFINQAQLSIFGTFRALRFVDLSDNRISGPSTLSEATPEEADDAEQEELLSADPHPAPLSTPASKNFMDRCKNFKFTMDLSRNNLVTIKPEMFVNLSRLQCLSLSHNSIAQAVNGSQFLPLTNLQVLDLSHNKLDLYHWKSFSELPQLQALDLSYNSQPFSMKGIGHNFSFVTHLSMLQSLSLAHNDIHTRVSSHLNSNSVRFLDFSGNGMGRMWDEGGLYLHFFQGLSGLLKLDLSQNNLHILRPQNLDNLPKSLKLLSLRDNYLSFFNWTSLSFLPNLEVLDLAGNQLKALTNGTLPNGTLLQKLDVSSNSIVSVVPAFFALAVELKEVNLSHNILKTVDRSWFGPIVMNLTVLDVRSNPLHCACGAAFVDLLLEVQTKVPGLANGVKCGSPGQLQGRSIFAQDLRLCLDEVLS
Excerpt: Protein. Recombinant fusion proteins consisting of the extracellular domain of Toll-like receptors mTLR9ect (aa 1-816), mTLR9ect-mut (see below) (aa 1-816), hTLR9ect (aa 1-815) and mTLR2ect (aa 1-587) fused to human IgG1-Fc were constructed by amplifying the corresponding extracellular domain and ligating the fragment in frame into a pcDNA3.1(−) (Invitrogen, Netherlands) vector containing the coding sequence for human IgG1-Fc. Fusion proteins were stably expressed in HEK 293 cells and purified from cell lysates by protein A affinity chromatography.
SPR biosensor analysis. Real-time binding of TLR9 or TLR2 was measured by surface plasmon resonance biosensor technology using the BiaCore X system (Uppsala, Sweden). For analysis of TLR9 and TLR2 interaction, biotinylated CpG-DNA and non-CpG-DNA, or biotinylated Pam3CysK4 and PHCK4, respectively, were loaded in running buffer (50 mM MES, 150 mM NaCl, 1 mM MgCl2 at pH 6.5) on SA chips precoated with streptavidin (Biacore AB, Uppsala, Sweden). Non-CpG-DNA or PHCK4 (Wiesmuller K H et al. (1989) Vaccine 7:29-33) served as reference for CpG-DNA and Pam3CysK4 interaction (structure or sequence in Table 1). […] TLR proteins were introduced at 200 nM or as indicated in 40 μl running buffer at a flow rate of 10 μl/min. Binding was measured at 25° C. for 750 s (delay time 300 s). […] Sensorgrams were recorded and kinetic data were calculated by the BiaCore Evaluation program (Biacore, version 3.0.1). Regeneration of the chip was performed by injection of 10 μl 50 mM NaOH, 1 M NaCl and extensive re-equilibration.
For detailed analysis of TLR9-CpG-DNA interaction, surface plasmon resonance (SPR) biosensor based technology was used with CpG- and non-CpG-DNA immobilized onto separate flow cells of a streptavidin-coated chip. Under these settings non-CpG-DNA served as reference for specific binding (see Methods). Binding of mTLR9ect to DNA was CpG-sequence-specific and increased in a dose-dependent manner. […] Using the 1:1 binding model of the BioEvaluation software as fitting algorithm and on the basis of four different mTLR9ect concentrations ranging from 50 to 300 nM, a dissociation constant (Kd) of 200 nM was obtained with low chi-squared residuals (4,76). […] Weber AN et al. (2003) Nat. Immunol. 4:794-800. Furthermore the concentration of CpG-DNA 1668 (SEQ ID NO:1) for half-maximal activation of murine TLR9 has been recently calculated as 70 nM which correlates well with the KD obtained here. Bauer S et al. (2001) Proc. Natl. Acad. Sci. U.S.A. 98:9237-9242. […] This difference in affinity correlates with the observed species-specific variance in CpG-motif recognition, as well as activation potential. Bauer S et al. (2001) Proc. Natl. Acad. Sci. U.S.A. 98:9237-9242.

[2] = molecular target: T2, mTLR9ect (Mus musculus, UniProt Q9EQU3); assay: UV-crosslinking of mTLR9ect with 32P-labeled DNA and SDS-PAGE; type: binding, murine; conditions: SDS-PAGE, complex at 150 kDa
T2 construct: mTLR9ect (aa 1-816); made in house
T2 sequence (Q9EQU3 26-816): T1 sequence (Q9EQU3 26-816)
Excerpt: FIG. 1B is an image of an SDS-PAGE gel depicting purified proteins from FIG. 1A UV-crosslinked with ^32P-labeled CpG- or non-CpG-DNA, separated by SDS-PAGE, and autoradiographed. TLR9 and free DNA are highlighted.
Bauer S et al. (2001) Proc. Natl. Acad. Sci. U.S.A. 98:9237-9242. To assess binding of TLR9 to CpG-DNA, a recombinant fusion protein consisting of the extracellular domain of murine TLR9 and human IgG 1-Fc (mTLR9ect) was constructed. The extracellular domain of murine TLR2 also fused to IgG1-Fc (mTLR2ect) served as control. Proteins were expressed in HEK 293 cells and purified via protein A affinity chromatography (FIG. 1A). Under denaturing and non-reducing conditions mTLR9ect and mTLR2ect are approximately 10% in a monomeric and 90% in a dimeric form. Dimerization of the proteins is probably mediated by the IgG 1-Fc fusion partner which forms disulfide bonds (FIG. 1A). Initially, binding of mTLR9ect to radiolabeled DNA was determined by UV-crosslinking and subsequent SDS-PAGE.

[3] = molecular target: T1, mTLR9ect (extracellular domain of murine TLR9 fused to human IgG1-Fc); assay: SPR biosensor analysis of mTLR9ect binding to immobilized CpG-DNA; conditions: pH 7.4
[4] = system: murine TLR9; conditions: read-out: concentration for half-maximal activation of murine TLR9; cited from earlier work

5′-TCCATGACGTTCCTGATGCT-3′ (chemistry not given here) [CpG-DNA 1668, synthetic CpG oligodeoxynucleotide, TLR9 ligand]
pKd ([1]; 1:1 binding model, four mTLR9ect concentrations 50 to 300 nM, running buffer pH 6.5, 25° C., read-out: dissociation constant (Kd)): 6.70
Binding of mTLR9ect to DNA ([1]; SPR, non-CpG-DNA as reference, pH 6.5): CpG-sequence-specific
release of bound mTLR9ect by free injected DNA ([1]; competition, free DNA added in dissociation phase): dose dependently released bound mTLR9ect
TLR9 binding to CpG-DNA ([1]; pH 6.5 or 5.5): strong
dissociation of TLR9 from CpG-DNA ([1]; pH 6.5 or 5.5): weak dissociation
effect of pre-incubation of mTLR9ect with DNA on binding to chip-immobilized CpG-DNA ([1]; pre-incubation prior to SPR analysis): abolished binding
binding of mTLR9ect to radiolabeled DNA [2]: bound
TLR9 binding to CpG-DNA [3]: weak
dissociation of TLR9 from CpG-DNA [3]: fairly rapidly
pEC50 [4]: 7.15
